In US20080171746A1, “Method for Preventing Cardiovascular Diseases” (priority 2005, published 2008):

Assays:
PDE5A1 = target: T1, PDE5A1 (Homo sapiens, UniProt O76074); experiment: Inhibition of PDE5A1 activity, modified SPA (scintillation proximity assay) with recombinant enzyme; assay type: biochemical; details: for IC50: recombinant PDE5A1, 0.5 μM cGMP substrate, read-out: Inhibition of the PDE5 activity (IC50)
T1 construct: made in house; host or cells: SF21 insect cells (baculovirus; virus made in SF9)
Text: The PDE5A1 (GB no. AF043731) was cloned via PCR from Kidney cDNA. A 5′ fragment was amplified with OZ489 (5′-[…] -3′) and OZ 493 (5′-[…]-3′), a 3′ fragment was amplified with OZ 492 (5′-[…]-3′) and OZ 490 (5′-[…]-3′). Both fragments were cloned into pCR2.1-Topo. Primers OZ 493 and OZ 492 have a nucleotide substitution that doesn't affect the translated sequence, but introduces an EcoRI cutting site. The 2 fragments were cut out of the cloning vector with EcoRI and subcloned together in a single ligation reaction into pBP9, resulting in the construct PZ 287. […] For correct expression it was subcloned with Xmal/Sacl into pBacPak8.
The recombinant baculovirus was prepared by means of homologous recombination in SF9 insect cells. The expression plasmid was cotransfected with Bac-N-Blue (Invitrogen, Groningen, NL) or Baculo-Gold DNA (Pharmingen, Hamburg) using a standard protocol (Pharmingen, Hamburg). Wt virus-free recombinant virus supernatant was selected using plaque assay methods. After that, high-titre virus supernatant was prepared by amplifying 3 times. PDE was expressed in SF21 cells by infecting 2×10^6 cells/ml with an MOI (multiplicity of infection) between 1 and 10 in serum-free SF900 medium (Life Technologies, Paisley, UK). The cells were cultured at 28° C. for 48-72 hours, after which they were pelleted for 5-10 min at 1000 g and 4° C.
The SF21 insect cells were resuspended, at a concentration of approx. 10^7 cells/ml, in ice-cold (4° C.) homogenization buffer (20 mM Tris, pH 8.2, containing the following additions: 140 mM NaCl, 3.8 mM KCl, 1 mM EGTA, 1 mM MgCl2, 10 mM β-mercaptoethanol, 2 mM benzamidine, 0.4 mM Pefablock, 10 μM leupeptin, 10 μM pepstatin A, 5 μM trypsin inhibitor) and disrupted by ultrasonication. The homogenate was then centrifuged for 10 min at 1000× g and the supernatant was stored at −80° C. until subsequent use (see below). The protein content was determined by the Bradford method (BioRad, Munich) using BSA as the standard.
The test volume is 100 μl and contains 20 mM Tris buffer (pH 7.4), 0.1 mg of BSA (bovine serum albumin)/ml, 5 mM Mg^2+, 0.5 μM cGMP (including about 50,000 cpm of [3H]cGMP as a tracer), 1 μl of the respective substance dilution in DMSO and sufficient recombinant PDE (1000× g supernatant, see above) to ensure that 10-20% of the cGMP is converted under the said experimental conditions. […] After a preincubation of 5 min at 37° C., the reaction is started by adding the substrate (cGMP) and the assay is incubated for a further 15 min; after that, it is stopped by adding SPA beads (50 μl). In accordance with the manufacturer's instructions, the SPA beads had previously been resuspended in water, but were then diluted 1:3 (v/v) in water; the diluted solution also contains 3 mM IBMX to ensure a complete PDE activity stop. After the beads have been sedimented (>30 min), the MTP's are analyzed in commercially available luminescence detection devices. The corresponding IC50 values of the compounds for the inhibition of PDE activity are determined from the concentration-effect curves by means of non-linear regression.

[1] = tested on: isolated guinea pig Langendorff hearts; experiment: Perfused guinea-pig Langendorff heart (bolus injection into the perfusion flow)
Text: (Modification: Bolus Injection into the Perfusion Flow)
Guinea-pigs (male, Dunkin Hartley, 400-500 g; Charles River, Sulzfeld, Germany) kept in Macrolon® cages (type IV) with free access to food (maintenance diet no. 3418, Provimi-Kliba, CH-4303 Kaiseraugst) and tap water, were killed by cervical dislocation and the thoracic cavity was opened. The heart was rapidly excised and perfused with Krebs-Henseleit solution at a constant pressure of 80 cm H2O ([…]) via retrograde cannulation of the aorta in a Langendorff apparatus. The Krebs-Henseleit solution was composed as follows (mM: NaCl 118, KCl 4.7, CaCl2 1.9, MgSO4 1.2, KH2PO4 1.2, NaHCO3 25.0, and glucose 5.0, at 37° C., gassed with 95% O2/5% CO2, v/v). Through an incision in the left atrium, a water-filled balloon catheter connected to a Statham P 23 Db pressure transducer was introduced into the left ventricle and preloaded to a pressure of […], mimicking the diastolic pressure.
Precoronary perfusate flow (CF, at an initial average passive flow of 11-13 ml/min) was measured using an electromagnetic flow meter. The change in left ventricular isovolumetric pressure amplitude (LVP) calculated by subtracting the diastolic from the systolic pressure, the rate of maximal left ventricular pressure rise (dP/dtmax), and the rate of the spontaneously beating heart (HR) were continuously recorded and monitored by a data acquisition system (Notocord, hem version 3.3; F-78290 Croissy).
Following at least 1 h of perfusion and stabilization of all cardiac parameters, the test drug is injected as 100 μl bolus within 2 s directly into the perfusion tube connected to the aortic inflow and increased threefold after the previous dose has produced its coronary dilatory response and the perfusion flow has returned to pre-drug values again. Thee drug-induced change in cardiac parameters is expressed as percentage of the initial pre-drug values.

SMILES	PDE5 inhibition in vitro (result in words) (PDE5A1)	IC50 (PDE5A1) [µM]	heart rate [1]	left ventricular pressure [1]	coronary heart flow [1]
CC(=O)Oc1ccccc1C(=O)O [Aspirin, acetylsalicylic acid]	show no effects	> 100	–	–	–
Cc1ccc(-c2cc(C(F)(F)F)nn2-c2ccc(S(N)(=O)=O)cc2)cc1 [Celecoxib]	–	–	no effect	no effect	–
O=C(O)Cc1ccccc1Nc1c(Cl)cccc1Cl [Diclofenac]	show no effects	> 100	–	–	substantially lack the ability to increase coronary heart flow
CCC(=O)NS(=O)(=O)c1ccc(-c2c(-c3ccccc3)noc2C)cc1 [Parecoxib]	show no effects	> 100	–	–	substantially lack the ability to increase coronary heart flow
Cc1onc(-c2ccccc2)c1-c1ccc(S(N)(=O)=O)cc1 [Valdecoxib]	show no effects	> 100	–	–	substantially lack the ability to increase coronary heart flow

Continued, in another order:

PDE5 inhibition in vitro (result in words) (PDE5A1)	IC50 (PDE5A1) [µM]	SMILES	heart rate [1]	left ventricular pressure [1]	coronary heart flow [1]
show no effects	> 100	Cc1ccc(-c2ncc(Cl)cc2-c2ccc(S(C)(=O)=O)cc2)cn1 [Etorecoxib]	–	–	substantially lack the ability to increase coronary heart flow
possess PDE5 activity in the μM range	–	CS(=O)(=O)Nc1cc2c(cc1Sc1ccc(F)cc1F)C(=O)CC2 [L-745337]	–	–	–
show no effects	> 100	Cc1ccc(Nc2c(F)cccc2Cl)c(CC(=O)O)c1 [Lumiracoxib]	–	–	substantially lack the ability to increase coronary heart flow
show no effects	> 100	CS(=O)(=O)c1ccc(C2=C(c3ccccc3)C(=O)OC2)cc1 [Rofecoxib]	–	–	substantially lack the ability to increase coronary heart flow
possess PDE5 activity in the μM range	–	CS(=O)(=O)Nc1cc2c(cc1Oc1ccc(F)cc1F)C(=O)CC2 [flosulide]	–	–	–
possess PDE5 activity in the μM range	–	CS(=O)(=O)Nc1ccc([N+](=O)[O-])cc1Oc1ccccc1 [nimesulide]	–	–	–
